Reference: US9963445B2, “Chemical compounds” (SYNGENTA PARTICIPATIONS AG, priority 2013, dated 2018)

Experiments:
Type in all cases: in vivo
zea mays [1] = test: Post-emergence herbicidal activity, glasshouse pot test; parameters: key: 0 = no damage to plant, 5 = total damage to plant; conditions: Application post-emergence, rate 1000 g/ha, evaluated after 13 days
Summary of the method: (§1)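 Damage rated 0 (none) to 5 (total) 13 days after spraying. Plants were treated post-emergence at 8 days after sowing, using an acetone/water (50:50) formulation with 0.5% Tween 20 diluted to an aqueous spray.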

Alopecurus myosuroides [2] = test: as above; parameters: key: 0 = no damage to plant, 5 = total damage to plant; conditions: Application post-emergence, rate 1000 g/ha, evaluated after 13 days
Summary of the method: as §1

Echinochloa crus-galli [3] = test: as above; parameters: key: 0 = no damage to plant, 5 = total damage to plant; conditions: Application post-emergence, rate 1000 g/ha, evaluated after 13 days
Summary of the method: as §1

Amaranthus retroflexus [4] = test: as above; parameters: key: 0 = no damage to plant, 5 = total damage to plant; conditions: Application post-emergence, rate 1000 g/ha, evaluated after 13 days
Summary of the method: as §1

Setaria faberi [5] = test: as above; parameters: key: 0 = no damage to plant, 5 = total damage to plant; conditions: Application post-emergence, rate 1000 g/ha, evaluated after 13 days
Summary of the method: as §1

Abutilon theophrasti [6] = test: as above; parameters: key: 0 = no damage to plant, 5 = total damage to plant; conditions: Application post-emergence, rate 1000 g/ha, evaluated after 13 days
Summary of the method: as §1

zea mays [7] = test: Pre-emergence herbicidal activity, glasshouse pot test; conditions: pre-emergence spray, rate 1000 g/ha, evaluated after 13 days, scale 0-5
Summary of the method: (§2)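 Pots of seeded soil were sprayed one day after sowing (pre-emergence) with compound formulated in acetone/water 50:50 with 0.5% Tween 20. Plants were grown in a glasshouse at 24/16 °C day/night, 14 h light, 65% humidity. Damage was scored after 13 days on a 0–5 scale (5 = total damage).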

Alopecurus myosuroides [8] = test: as above; conditions: pre-emergence spray, rate 1000 g/ha, evaluated after 13 days, scale 0-5
Summary of the method: as §2

Echinochloa crus-galli [9] = test: as above; conditions: pre-emergence spray, rate 1000 g/ha, evaluated after 13 days, scale 0-5
Summary of the method: as §2

Amaranthus retroflexus [10] = test: as above; conditions: pre-emergence spray, rate 1000 g/ha, evaluated after 13 days, scale 0-5
Summary of the method: as §2

Setaria faberi [11] = test: as above; conditions: pre-emergence spray, rate 1000 g/ha, evaluated after 13 days, scale 0-5
Summary of the method: as §2

Abutilon theophrasti [12] = test: as above; conditions: pre-emergence spray, rate 1000 g/ha, evaluated after 13 days, scale 0-5
Summary of the method: as §2

| SMILES | ZEAMX herbicidal damage score (zea mays [1]) | ALOMY herbicidal damage score (Alopecurus myosuroides [2]) | ECHCG herbicidal damage score (Echinochloa crus-galli [3]) | AMARE herbicidal damage score (Amaranthus retroflexus [4]) | SETFA herbicidal damage score (Setaria faberi [5]) | ABUTH herbicidal damage score (Abutilon theophrasti [6]) | ZEAMX damage score, application pre-emergence (zea mays [7]) | ALOMY damage score, application pre-emergence (Alopecurus myosuroides [8]) | ECHCG damage score, application pre-emergence (Echinochloa crus-galli [9]) | AMARE damage score, application pre-emergence (Amaranthus retroflexus [10]) | SETFA damage score, application pre-emergence (Setaria faberi [11]) | ABUTH damage score, application pre-emergence (Abutilon theophrasti [12]) |
| --- | --- | --- | --- | --- | --- | --- | --- | --- | --- | --- | --- | --- |
| CC1=C(Cl)C(=O)N(c2cc(C(C)(C)C)ncn2)C1O (stereo not drawn) [CF2] | 5 | 5 | 5 | 5 | 5 | 5 | 3 | 4 | 4 | 5 | 4 | 5 |
| CC1=C(Cl)C(=O)N(c2cc(C(F)(F)F)ncn2)C1O (stereo not drawn) [CF3] | 4 | 5 | 5 | 3 | 5 | 5 | 1 | 3 | 4 | 3 | 3 | 5 |
| CC1=C(Cl)C(=O)N(c2cc(C3CC3)ncn2)C1O (stereo not drawn) [CF4] | 2 | 5 | 5 | 5 | 5 | 5 | 1 | 3 | 4 | 5 | 5 | 5 |
| CC1=C(Cl)C(=O)N(c2cc(OC(C)C)ncn2)C1O (stereo not drawn) [CF5] | 2 | 4 | 5 | 4 | 5 | 5 | 2 | 3 | 3 | 4 | 5 | 4 |
| C/C=C/c1cc(N2C(=O)C(Cl)=C(C)C2O)ncn1 (stereo not drawn) [CF6] | 0 | 3 | 4 | 2 | 4 | 4 | 0 | 2 | 3 | 2 | 2 | 0 |
| CCC1=C(Cl)C(=O)N(c2cc(C(C)(C)C#N)ncn2)C1O (stereo not drawn) [CF10] | 5 | 5 | 5 | 5 | 5 | 5 | 4 | 2 | 4 | 5 | 4 | 5 |
| CCOC(=O)C(C)(C)c1cc(N2C(=O)C(Cl)=C(C)C2O)ncn1 (stereo not drawn) [CF11] | 3 | 5 | 5 | 2 | 5 | 5 | 2 | 2 | 5 | 4 | 4 | 5 |
| CC1=C(Cl)C(=O)N(c2cc(C#N)ncn2)C1O (stereo not drawn) [CF13] | 1 | 3 | 1 | 2 | 3 | 2 | 1 | 0 | 0 | 0 | 0 | 0 |
| CC1=C(Cl)C(=O)N(c2cc(C(C)(C)C#N)ncn2)C1O (stereo not drawn) [CF14] | 5 | 5 | 5 | 5 | 5 | 5 | 2 | 3 | 5 | 5 | 5 | 5 |
| CC1=C(Cl)C(=O)N(c2cc(C(C)(F)F)ncn2)C1O (stereo not drawn) [CF15] | 4 | 4 | 5 | 5 | 5 | 5 | 2 | 3 | 5 | 5 | 5 | 5 |
| CCN(C)c1cc(N2C(=O)C(Cl)=C(C)C2O)ncn1 (stereo not drawn) [CF16] | 1 | 4 | 5 | 3 | 5 | 3 | 1 | 1 | 2 | 2 | 4 | 2 |
| CC1=C(Cl)C(=O)N(c2cc(C3(C#N)CC3)ncn2)C1O (stereo not drawn) [CF17] | 3 | 4 | 5 | 5 | 5 | 5 | 2 | 3 | 3 | 5 | 5 | 2 |
| CC1=C(Cl)C(=O)N(c2cc(C(C)C#N)ncn2)C1O (stereo not drawn) [CF18] | 1 | 3 | 2 | 2 | 3 | 4 | 0 | 4 | 1 | 1 | 3 | 1 |
| CC1=C(Cl)C(=O)N(c2cc(C(C)C)ncn2)C1O (stereo not drawn) [CF19] | 3 | 3 | 5 | 5 | 5 | 5 | 2 | 2 | 4 | 5 | 4 | 5 |
| CC1=C(Cl)C(=O)N(c2cc(N(C)C)ncn2)C1O (stereo not drawn) [CF20] | 0 | 4 | 4 | 5 | 5 | 4 | 2 | 1 | 3 | 3 | 1 | 0 |
| COc1cc(N2C(=O)C(Cl)=C(C)C2O)ncn1 (stereo not drawn) [CF21] | 3 | 4 | 5 | 3 | 5 | 3 | 2 | 2 | 5 | 4 | 4 | 1 |
